Assay results reported in article PMC6017591, “Design, Synthesis and in Combo Antidiabetic Bioevaluation of Multitarget Phenylpropanoic Acids” (Molecules : A Journal of Synthetic Chemistry and Natural …, 2018).

Columns and labels:
GPR40 = GPR40 (Homo sapiens, UniProt O14842); assay: GPR40 agonist calcium flux assay in hGPR40/Gα16/HEK293 cells; details: for Emax at 100 µM: HEK293, read-out: Maximal Response % (100 μM)
Protocol: Linoleic acid (LA), one of the endogenous ligands for GPR40, was designated as positive control.
This bioassay was previously described [2]. Briefly: About 4 × 10^4 h GPR40/HEK293 per well were seeded in 96-well plate. After culturing for 24 h, cells were loaded with 2 μmol/L Fluo-4 AM in Hanks’ balanced salt solution at 37 °C for 40 min.

[1] = system: STZ-NA induced diabetes mice model; assay: In vivo antidiabetic effect in STZ-NA induced diabetes mice model; set-up: species or system CD1 mice; details: 100 mg/kg single dose, intragastric
Protocol: Glibenclamide was used as a positive control, in order to ensure that the damage over β-cells was partial and mice pancreas still produces insulin, that responds to a secretagogue such as sulfonylurea drug used in this work.
CD1 mice (20–25 g) were housed in groups of six (n = 6) under laboratory conditions. Before experimentation, all animals were fasted for 16 h with water ad libitum. All animal procedures were conducted in accordance with the Mexican Federal Regulations for Animal Experimentation and Care (SAGARPA, NOM-062-ZOO-1999), based on US National Institutes of Health Publication #85-23, revised 1985. Non-insulin-dependent diabetes mice model was induced in overnight fasted mice by a single i.p. injection of 100 mg/kg STZ, 15 min before the i.p. administration of 40 mg/kg of NA. Hyperglycaemia was established by the higher plasma glucose concentration, determined by glucometer after 2 weeks. The animals with glycaemia higher than 200 mg/dL were selected for the assay. The diabetic mice were separated into […] of six animals each (n = 6). Mice of experimental groups were administered with a suspension of the molecules 1–3 (100 mg/kg, prepared in 10% (v/v) tween 80). Control group mice were similarly treated with 10% tween 80. […] The samples of blood were collected from the caudal vein at 0, 1, 3, 5 and 7 h after administration of each compound. Blood glucose levels were estimated using a commercial glucometer. The percentage variation of glycemia for each group was calculated. Values are expressed as mean ± S.E.M. Statistical significance was estimated by ANOVA.

GLUT-4 = assay: Relative mRNA expression of GLUT-4 in 3T3-L1 adipocytes; assay type: cell-based; details: 24 h treatment
From the text: 3T3-L1 fibroblasts were differentiated to the adipocyte phenotype in order to determine the action of compounds on PPARγ and GLUT-4 expression. […] The activation of PPARγ could reduce the glucose levels in diabetic patients due to insulin resistance reduction. […] Several evidences indicate that increased levels of GLUT-4 expression in skeletal muscle are critical for the regulation of glucose homeostasis.
Both assays were achieved as described elsewhere. Briefly: 3T3-L1 fibroblasts (9 × 10^5 cells per well) were cultured in 6-well plates in Dulbecco’s modified Eagle’s medium. After 2 days of confluence, the cells were differentiated to the adipocyte phenotype with 0.5 mM 3-isobutyl-1-methylxanthine, 0.25 μM dexamethasone acetate, and 0.8 μM insulin, for 48 h, followed by insulin alone for other 48 h. To determine the action of compounds on PPARγ and GLUT-4 expression, the cells were treated 24 h. RNA was isolated from cultured cells and two μg of total RNA were reverse-transcripted in a thermocycler. The enzyme was inactivated and finally samples were cooled. […] PCR was conducted and the threshold cycles (Ct) were measured in separate tubes and in duplicate. The ΔCt values were calculated in every sample for each gene of interest. Relative changes in the expression level of one specific gene (ΔΔCt) were calculated.

human recombinant AKR1B1 = human recombinant AKR1B1 (Homo sapiens, UniProt P15121); assay: Aldose reductase (AKR1B1) inhibition assay
Protocol: Human recombinant AKR1B1 was purified by electrophoretic homogeneity as previously described [24]. The enzyme activity was corroborated at 37 °C following the decrease of absorbance at 340 nm. […] IC50 values was determined by nonlinear regression analysis. For each curve, five different concentrations of compounds were analyzed [25].

Chain of GPR40 (O14842 whole entry): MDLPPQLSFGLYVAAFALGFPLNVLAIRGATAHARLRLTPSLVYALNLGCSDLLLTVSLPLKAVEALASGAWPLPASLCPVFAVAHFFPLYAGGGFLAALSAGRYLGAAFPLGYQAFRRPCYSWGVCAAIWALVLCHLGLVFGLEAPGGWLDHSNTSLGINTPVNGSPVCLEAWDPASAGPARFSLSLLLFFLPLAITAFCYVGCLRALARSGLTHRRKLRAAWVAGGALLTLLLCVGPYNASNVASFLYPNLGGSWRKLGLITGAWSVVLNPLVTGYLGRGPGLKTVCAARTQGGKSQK

In the case of O=C(O)CCc1ccc(OCc2cccc(-c3ccccc3)c2)cc1 [Compound 1, 3-[4-(Biphenyl-3-ylmethoxy)phenyl]propanoic acid], the EC50 (GPR40) is reported as 0.075 ± 0.02 µM, the Emax at 100 µM (GPR40) is reported as 98 ± 10% and the “In vivo antidiabetic activity (in words)” value ([1]; STZ-NA diabetic mice) is reported as “lack of in vivo activity”.
O=C(O)CCc1ccc(OCc2cccc3ccccc23)cc1 [Compound 2, 3-[4-(1-Naphthylmethoxy)phenyl]propanoic acid] was tested, and the “Increase in GLUT-4 levels (mRNA expression)” value (GLUT-4) was 2 to 4 times and the “Decrease of blood glucose levels” value ([1]; 7 h after administration, STZ-NA diabetic mice) was ~80%.
N#Cc1ccccc1-c1ccc(COc2ccc(CCC(=O)O)cc2)cc1 [Compound 3, 3-{4-[(2′-Cyanobiphenyl-4-yl)methoxy]phenyl} propanoic acid] was tested, and the “Increase in GLUT-4 levels (mRNA expression)” value (GLUT-4) was 2 to 4 times, the “Glucose lowering effect (variation of glycemia)” value (from here on “Glucose lowering effect”) ([1]; at 3 h) was −20% and the “Glucose lowering effect” value ([1]; at 5 h) was −50%. For the same compound, the “Glucose lowering effect” value ([1]; at 7 h) was −60%.
Compound O=C(O)CCc1ccc(OCc2ccc3ccccc3n2)cc1 [Compound 4, 3-[4-(Quinolin-2-ylmethoxy)phenyl]propanoic acid] has an EC50 (GPR40) of ~100 µM and an Emax at 100 µM (GPR40) of 84%.
O=C(O)CCc1ccc(OCC(=O)Nc2nc3ccccc3s2)cc1 [Compound 5, 3-{4-[2-(1,3-Benzothiazol-2-ylamino)-2 oxoethoxy]phenyl}propanoic Acid] was tested, and the EC50 (GPR40) was > 100 µM, the Emax at 100 µM (GPR40) was 9.9% and the “GPR40 agonistic activity (in words)” value (GPR40; calcium assay) was “inactive”. The IC50 (human recombinant AKR1B1) was 23.3 µM.
For CCCCC/C=C\C/C=C\CCCCCCCC(=O)O [LA, Linoleic acid, reference compound], the EC50 (GPR40) was 8.3 ± 1.7 µM and the Emax at 100 µM (GPR40) was 100%.
